Assay results from patent publication US20220409587A1, “METHODS OF TREATING HIV-1 INFECTION” (BIOTRON LIMITED, priority 2019, published 2022).
“And” between values parts separate entries of the source, which are not always exact repeats. Equal values may be shown once. “Also recorded” adds a separate entry of the source.

Legend:
[1] = Phase 2 study: pharmacokinetics (plasma, LC/MS/MS); type: in vivo, human
Description: (§1) A Phase 2, multi-centre, randomized, placebo-controlled, double-blind study of BIT225 in combination with ART (Atripla—efavirenz/emtricitabine/tenofovir DF) was undertaken in patients with HIV-1 infection that were treatment-naive. Patients were randomized into two groups on a 2:1 basis, with one group receiving BIT225 (100 mg QD; 6 patients: placebo; 3 patients), and one group receiving BIT225 (200 mg QD, 18 patients: placebo; 9 patients), with a total of 36 patients enrolled in the trial. The 100 mg BIT225 group was primarily included for detailed PK analyses due to limitations on the quantity of blood that could be drawn at time points coinciding with analyses of viral load decay, which were limited to the 200 mg cohort. All subjects received the standard dose of ART in addition to 12 weeks BIT225 or placebo study treatment. At the conclusion of the trial, patients remained on ART as per standard treatment protocols. HIV-1-infected subjects, males and females, aged 18 to 65 years inclusive, who were naive to ART were recruited. Individuals had HIV-1 RNA>5,000 copies/mL and CD4^+ T cell count>100 cells/mm^3.
There were two treatment cohorts. The first cohort received 100 mg capsule of BIT225 or placebo QD with ART for 12 weeks. Cohort 2 were given two 100 mg capsules BIT225 (200 mg BIT225) or placebo QD with ART. ART was 1 fixed dose combination tablet of Atripla. […]

[2] = system: IFN-γ; assay: Phase 2 study: plasma Th17 related cytokines (MSD U-Plex), IFN-γ; type: in vivo, human
Description: as §1, with “At the conclusion of the trial, patients remained on ART as per standard treatment protocols. HIV-1-infected subjects, males and females, aged 18 to 65 years inclusive, who were naive to ART were recruited. Individuals had HIV-1 RNA>5,000 copies/mL and CD4^+ T cell count>100 cells/mm^3.” left out
(§2) Th17 cells regulate other immune cells, specifically neutrophils and macrophages, by secreting a variety of cytokines in response to pathogens. Plasma samples were analysed to determine the level of the Th17 related cytokines (IL-21, IFN-γ, IL-1p, IL-6, IL-10, IL-17A, IL-17E/IL-25, IL-17F, IL-22, and TNF-α) during the 12 week treatment period using electro-chemiluminescence MSD U-Plex Biomarker Group Th17 (Human Combo 2) Human Multiplex Assay (MesoScaleDiscovery, MD, USA).

[3] = system: IL-17F; assay: Phase 2 study: plasma Th17 related cytokines (MSD U-Plex), IL-17F; type: in vivo, human; settings: BIT225 cohort vs placebo (data not shown)
Description: as §1, with “At the conclusion of the trial, patients remained on ART as per standard treatment protocols. HIV-1-infected subjects, males and females, aged 18 to 65 years inclusive, who were naive to ART were recruited. Individuals had HIV-1 RNA>5,000 copies/mL and CD4^+ T cell count>100 cells/mm^3.” left out
as §2

[4] = system: IL-21; assay: Phase 2 study: plasma Th17 related cytokines (MSD U-Plex), IL-21; type: in vivo, human
Description: as §1, with “At the conclusion of the trial, patients remained on ART as per standard treatment protocols. HIV-1-infected subjects, males and females, aged 18 to 65 years inclusive, who were naive to ART were recruited. Individuals had HIV-1 RNA>5,000 copies/mL and CD4^+ T cell count>100 cells/mm^3.” left out
as §2

[5] = system: IL-6; assay: Phase 2 study: plasma Th17 related cytokines (MSD U-Plex), IL-6; type: in vivo, human
Description: as §1, with “At the conclusion of the trial, patients remained on ART as per standard treatment protocols. HIV-1-infected subjects, males and females, aged 18 to 65 years inclusive, who were naive to ART were recruited. Individuals had HIV-1 RNA>5,000 copies/mL and CD4^+ T cell count>100 cells/mm^3.” left out
as §2

[6] = system: CD80 on MDM infected with HIV-1 NL4-3; assay: Plasma membrane CD80 expression on HIV-1 NL4-3 infected MDM, flow cytometry; type: cell-based, human
Description: Method of virus stock generation is as described by Bobardt et al., PNAS, 2008; 105(14):5525-5530. Briefly, 293T cells were transfected with proviral plasmid (9 μg) and vesicular stomatitis virus G (VSV-G) envelope plasmid (1 μg). At day 2, VSV-G pseudotyped viruses (5 μg of p24) were harvested and used to acutely infect Jurkat cells (2×10^6 cells). Two days after infection, viruses were harvested, and p24 content was measured by ELISA (PerkinElmer). Viral infections were conducted in triplicate with 10 or 100 ng of p24 derived from transfected 293T cells. The following proviral constructs were used: wild-type HIV-1 pNL4.3 […] tropic[WT], pNL4.3 ANef, pNL4.3 AVpu, pNL4.3 ANefAVpu, and HIV-1 pBaL-1 CCR5(R5) tropic[WT].
Blood-derived CD4^+ T lymphocytes and MDM were isolated as described in Saphire et al., J Virol 2001, 75:9187-9200. CD4^+ T cells and monocytes were extracted from the blood of three donors that were CCR5-Delta32 negative. […]
Cells were treated with 3 μM BIT225 or DMSO control, and expression of CD28, CCR7, CD80 and CD86 measured by flow cytometry at 24, 48 and 72 hour time points. […]

[7] = system: activated CD4^+ T cells (CD4^+/HLA-DR^+/CD38^+); assay: Phase 2 study: activated CD4+ T cell numbers by flow cytometry; type: in vivo, human
Description: as §1, with “Individuals had HIV-1 RNA>5,000 copies/mL and CD4^+ T cell count>100 cells/mm^3.” left out
(§3) Analyses for cell populations (T cells and NK cells) were performed in real time by flow cytometry (CD4^+, CD8^+, CD38^+, and HLA-DR^+ for T cells, and CD16^+, CD45^+ and CD56^+ for NK cells). […] Immune activation markers measured by flow cytometry were performed in real time alongside CD4^+, CD8^+ and CD14^+ enumeration at HIV-NAT laboratory, Bangkok Thailand.

[8] = system: activated CD8^+ cell (CD8^+/HLA-DR^+/CD38^+); assay: Phase 2 study: activated CD8+ T cell numbers by flow cytometry; type: in vivo, human; settings: 200 mg BIT225 QD + ART vs placebo + ART, 12 weeks; ±29 SEM; P<0.01
Description: as §1, with “Individuals had HIV-1 RNA>5,000 copies/mL and CD4^+ T cell count>100 cells/mm^3.” left out
as §3

[9] = system: NK cells; assay: Phase 2 study: NK cell numbers by flow cytometry; type: in vivo, human
Description: as §1
There were two treatment cohorts. The first cohort received 100 mg capsule of BIT225 or placebo QD with ART for 12 weeks. Cohort 2 were given two 100 mg capsules BIT225 (200 mg BIT225) or placebo QD with ART. ART was 1 fixed dose combination tablet of Atripla.
Analyses for cell populations (T cells and NK cells) were performed in real time by flow cytometry (CD4^+, CD8^+, CD38^+, and HLA-DR^+ for T cells, and CD16^+, CD45^+ and CD56^+ for NK cells). ELISA assays were run for sCD163 and Th17 related cytokines. Immune activation markers measured by flow cytometry were performed in real time alongside CD4^+, CD8^+ and CD14^+ enumeration at HIV-NAT laboratory, Bangkok Thailand.

Cn1cc(-c2cccc3cc(C(=O)NC(=N)N)ccc23)cn1 [BIT225, N-carbamimidoyl-5-(1-methylpyrazol-4-yl)naphthalene-2-carboxamide]
Effect of BIT225 on the PK characteristics of Atripla (ART) ([1]; co-administration (results not shown)): did not significantly affect; also recorded: no significant impact | Plasma exposures ([1]; intensive PK sampling, 100 mg cohort): within the expected timeframes and concentration ranges | Subjects with IFN-γ transient spike ([2]; BIT225 cohort (data not shown)): 16 of 18 | IFN-γ cohort mean response ([2]; BIT225 cohort + ART): transient spike at Day 14 | IL-17F production versus placebo [3]: no difference between cohorts | Plasma IL-21 versus placebo over the first 3 weeks (ANOVA) ([4]; 200 mg BIT225 QD + ART vs placebo + ART, P=0.02): statistically significant increase; also recorded: statistically significantly increased | Time of peak plasma IL-21 ([4]; BIT225 + ART): 3 week | Subjects with transient spike of plasma IL-6 in first 3 weeks ([5]; BIT225 + ART): 8 of 18 | IL-6 response after 3 weeks, change from baseline (Log10) ([5]; BIT225 cohort vs placebo (data not shown)): remained higher than placebo | Plasma membrane CD80 expression on MDM ([6]; 3 μM BIT225, WT or ΔNef virus infected cells (express Vpu)): partial restoration | Plasma membrane CD80 expression on MDM ([6]; 3 μM BIT225, ΔNefΔVpu HIV-1 NL4-3 double mutant): no observable effect | Time activated CD4+ T cells remained elevated ([7]; 100 mg BIT225 QD + ART (data not shown)): approximately 50 days | Change from baseline of activated CD4+ T cell numbers compared to placebo ([7]; 200 mg BIT225 QD + ART vs placebo + ART, 12 weeks): sustained delay in decline; also recorded: statistically significant delayed reduction | Estimated average difference in activated CD8+ T cells, BIT225 cohort versus placebo (two-factor linear model) [8]: 85 cells/ml | Estimated average difference in NK cells, BIT225 cohort versus placebo (two-factor linear model) ([9]; 200 mg BIT225 QD + ART vs placebo + ART, 12 weeks, SEM, P<0.01): 71 cells/ml and 71±23 cells/ml | Time to peak of NK cell numbers after commencing treatment ([9]; BIT225 + ART): 24 to 48 h
